Assay in all cases: growth of human tumour cells (NCI), 48 h
For test [1], the system named is ACHN.
In test [2] the test system is UACC-257.
Test [3] concerns OVCAR-5.
Test [4] deals with DU-145.
Test [5] relates to SNB-19.
Test [6] relates to NCI-H522.
Test [7] relates to PC-3.
Test [8] concerns HCC 2998.
Test [9] concerns OVCAR-8.
The subject of test [10] is RXF 393.
For test [11], the system named is NCI/ADR-RES.
Test [12] deals with SF-268.
For test [13], the system named is A498.
The test system of test [14] is MOLT-4.
Test [15] relates to SF-295.
Test [16] deals with OVCAR-4.
The test system of test [17] is BT-549.
For test [18], the system named is TK-10.
Test [19] concerns A549.
In test [20] the test system is Hs-578T.

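Results reflect a 48-hour exposure of cells in 96-well plates to compound at five concentrations. At the GI50, growth is halved.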 Calls of active or inactive are those of the source. Cut-off read from the data, not from the text of the source: active = GI50 up to about 1.1 µM and inactive = higher.

Take `CCCC(=O)Nc1cc(/C=C/C(=O)N2CC(CCl)c3c2cc([N+](=O)[O-])c2ccccc32)n(C)c1` (configuration not stated): the GI50 in [1] was 1.32 µM (inactive); in test [2], > 100 µM (inactive); in test [3], > 100 µM (inactive); in test [4], 0.632 µM (active); in test [5] it was > 100 µM (inactive); in test [6] it was > 100 µM (inactive). Also, the GI50 was 3.73 µM (inactive) in [7]; 14.5 µM (inactive) in test [8]; 16.5 µM (inactive) in [9]; 59.4 µM (inactive) in test [10]; 8.93 µM (inactive) in [11]; > 100 µM (inactive) in [12]. For the same molecule, the GI50 in test [13] was 8.49 µM (inactive); in test [14], 3.01 µM (inactive); in test [15] it was > 52.1 µM (inactive); in test [16], > 100 µM (inactive); in test [17] it was > 73.3 µM (inactive); in [18], > 100 µM (inactive). The GI50 in test [19] was 8.89 µM (inactive).

For `CCc1ccc(Nc2cc(=O)[nH]c(SCc3ccccc3)n2)cc1`, the GI50 is 50.7 µM (inactive) in test [1]; > 100 µM (inactive) in [2]; > 100 µM (inactive) in test [3]; > 100 µM (inactive) in test [4]; 38.2 µM (inactive) in [5]; > 100 µM (inactive) in test [20]. For the same molecule, the GI50 was > 100 µM (inactive) in [6]; 44.9 µM (inactive) in test [9]; > 100 µM (inactive) in [10]; 74.1 µM (inactive) in [11]; 73.1 µM (inactive) in [12]; > 100 µM (inactive) in test [13]. Also, the GI50 in test [14] was > 100 µM (inactive); in test [15], 46.2 µM (inactive); in test [17], > 100 µM (inactive); in test [18], > 100 µM (inactive); in test [19], > 100 µM (inactive).

For `COc1ccc(-c2nc(SCC(=O)NNC(=S)Nc3ccccc3)[nH]c2-c2ccc(OC)cc2)cc1`, the GI50 in test [1] was 24.5 µM (inactive); in test [2] it was 20.8 µM (inactive); in [3], 23.7 µM (inactive); in test [4] it was 28.7 µM (inactive); in [5], 21.8 µM (inactive); in test [6], 22.7 µM (inactive). Moreover, the GI50 in test [7] is 25.8 µM (inactive); in test [8], 14 µM (inactive); in test [9], 39.9 µM (inactive); in [10] it was 16.9 µM (inactive); in test [11], 74.5 µM (inactive); in test [12], 25.9 µM (inactive). For the same molecule, the GI50 is 22.9 µM (inactive) in [13]; 3.46 µM (inactive) in test [14]; 19.1 µM (inactive) in [15]; 33.5 µM (inactive) in [16]; 24 µM (inactive) in test [17]; 40.6 µM (inactive) in test [18]. Besides, in test [19], the GI50 was 31.5 µM (inactive).

For the molecule `O=C1CC(c2ccccc2)C2(C(=O)NC(=S)NC2=O)C(c2ccccc2)C1` (configuration not stated), the GI50 in test [1], in test [2], in test [3], in test [4], in [5] and in test [6] was > 75 µM (inactive) throughout. In addition, the GI50 in [7], in test [8], in test [9], in test [10], in test [11] and in test [12] was > 75 µM (inactive) in each case. Further, the GI50 in test [14] is 27.3 µM (inactive); in test [15] it was > 75 µM (inactive); in test [16], > 75 µM (inactive); in test [17], > 75 µM (inactive); in test [18] it was > 75 µM (inactive).

The values are drawn from ChEMBL document CHEMBL1201862, “PubChem BioAssay data set” (2004).
